According to patent US20180092866A1, “SUBSTITUTED N-([1,1'-BIPHENYL]-3-YL)-[1,1'-BIPHENYL]-3-CARBOXAMIDE ANALOGS AS INHIBITORS FOR BETA-CATENIN/B-CELL LYMPHOMA 9 INTERACTIONS” (University of Utah Research Foundation, priority 2015, published 2018):
Structures can show the parent of a compound that is named as a salt.

molecular target: T1, β-catenin/E-cadherin PPIs (Homo sapiens, UniProt P35222); experiment: AlphaScreen selectivity assay, β-catenin/BCL9 versus β-catenin/E-cadherin; assay type: binding; conditions: not given
T1 construct: β-Catenin or its mutants (residues 138-686) was cloned into a pET-28b vector; made in house; host or cells: E. coli BL21 DE3
T1 sequence (P35222 138-686): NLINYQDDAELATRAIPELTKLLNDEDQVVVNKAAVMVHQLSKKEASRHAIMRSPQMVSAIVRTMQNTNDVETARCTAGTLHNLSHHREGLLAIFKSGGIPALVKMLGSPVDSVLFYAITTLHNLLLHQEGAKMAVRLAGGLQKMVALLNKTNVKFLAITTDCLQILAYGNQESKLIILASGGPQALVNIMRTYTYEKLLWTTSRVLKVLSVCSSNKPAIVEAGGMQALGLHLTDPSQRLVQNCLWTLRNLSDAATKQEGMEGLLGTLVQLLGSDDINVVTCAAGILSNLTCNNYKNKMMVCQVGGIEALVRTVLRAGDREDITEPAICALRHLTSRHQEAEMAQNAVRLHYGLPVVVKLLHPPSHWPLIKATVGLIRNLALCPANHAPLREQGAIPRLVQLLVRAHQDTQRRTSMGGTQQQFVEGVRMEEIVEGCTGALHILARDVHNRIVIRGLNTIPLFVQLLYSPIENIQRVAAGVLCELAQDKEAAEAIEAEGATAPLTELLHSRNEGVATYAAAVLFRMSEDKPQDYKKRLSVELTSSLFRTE
From the text: Human BCL9 (residues 350-375), N-terminally biotinylated human BCL9 (residues 350-375), N-terminally fluorescein-labeled human BCL9 (residues 350-375), and N-terminally biotinylated human E-cadherin (residues 824-877) were synthesized by InnoPep Inc. (San Diego, Calif., www.innopep.com). All synthesized peptides were purified by HPLC with purity >95%. The structures were validated by LC/MS. The sequences are shown in Table 2 (Ahx, 6-aminohexanoic acid).
The purity of the wild-type and mutant β-catenin proteins was all greater than 95% as determined by the SDS-PAGE gel analysis. Both the wild-type and mutant β-catenin proteins are stable under the testing conditions. Native non-denaturing gel electrophoresis was performed to confirm the homogeneity of the purified proteins. Experiments were performed in white opaque 384-well plates from PerkinElmer, and the samples were read on a Synergy 2 plate reader (Biotek) with a sensitivity setting of 200 using AlphaScreen protocol with excitation at 680 nm and emission at 570 nm. All dilutions were made in 1×assay buffer containing 25 mM HEPES (pH=7.0), 100 mM NaCl, 0.01% Triton X-100, and 0.1% BSA. […] The IC50 value was determined by nonlinear least-square analysis of GraphPad Prism 5.0. […]

Row | selectivity for β-catenin/BCL9 over β-catenin/E-cadherin PPIs (in words) | Compound
1 | much higher selectivity | O=C(NCCCC(=O)N1CCNCC1)c1ccc(-c2cc(C(=O)Nc3ccc(O[C@H]4CCNC4)c(-c4ccc(F)cc4)c3)ccc2O[C@H]2CCNC2)cc1 [Compound 29, 4-(4-(5′-((4′-fluoro-6-((S)-pyrrolidin-1-ium-3-yloxy)-[1,1′-biphenyl]-3-yl)carbamoyl)-2′-((S)-pyrrolidin-1-ium-3-yloxy)-[1,1′-biphenyl]-4-ylcarboxamido)butanoyl) piperazin-1-ium]

molecular target: T2, β-catenin/BCL9 protein-protein interactions (Homo sapiens, UniProt P35222); experiment: AlphaScreen competitive inhibition assay, wild-type β-catenin/BCL9; assay type: binding; conditions: AlphaScreen assay, comparison with named compound
T2 construct: C-terminally His6-tagged wild-type or mutant β-catenin (residues 138-686) proteins; made in house; host or cells: E. coli BL21 DE3
T2 sequence (P35222 138-686): T1 sequence (P35222 138-686)
Protocol: The purity of the wild-type and mutant β-catenin proteins was all greater than 95% as determined by the SDS-PAGE gel analysis. Both the wild-type and mutant β-catenin proteins are stable under the testing conditions. Native non-denaturing gel electrophoresis was performed to confirm the homogeneity of the purified proteins. Experiments were performed in white opaque 384-well plates from PerkinElmer, and the samples were read on a Synergy 2 plate reader (Biotek) with a sensitivity setting of 200 using AlphaScreen protocol with excitation at 680 nm and emission at 570 nm. All dilutions were made in 1×assay buffer containing 25 mM HEPES (pH=7.0), 100 mM NaCl, 0.01% Triton X-100, and 0.1% BSA. In the AlphaScreen competitive inhibition assay, 40 nM of C-terminally His6-tagged wild-type or mutant β-catenin (residues 138-686) proteins was incubated with 5 nM of N-terminal biotinylated human BCL9 26-mer (residues 350-375) for 30 min at 4° C., and then different concentrations of the tested inhibitors in the assay buffer were added to make a final volume of 20 μL. The mixture was incubated at 4° C. for 2 h. The donor and acceptor beads were added to a final concentration of 10 μg/mL in 25 μL of assay buffer. The mixture was incubated at 4° C. for 1 h. The IC50 value was determined by nonlinear least-square analysis of GraphPad Prism 5.0. […] The Ki values were derived from the IC50 values by a reported method (Nikolovska-Coleska et al. (2004) Anal. Biochem. […]: 261-273). Experiments were performed in triplicate and carried out in the presence of 1% DMSO.

Row | Compound | relative inhibitory potency for β-catenin/BCL9 PPIs (in words)
2 | O=C(NCCCC(=O)N1CCNCC1)c1ccc(-c2cc(C(=O)Nc3ccc(O[C@H]4CCNC4)c(-c4ccc(F)cc4)c3)ccc2O[C@H]2CCNC2)cc1 [Compound 29, 4-(4-(5′-((4′-fluoro-6-((S)-pyrrolidin-1-ium-3-yloxy)-[1,1′-biphenyl]-3-yl)carbamoyl)-2′-((S)-pyrrolidin-1-ium-3-yloxy)-[1,1′-biphenyl]-4-ylcarboxamido)butanoyl) piperazin-1-ium] | comparable inhibitory potency for β-catenin/BCL9 PPIs as 21

same assay, conditions: wild-type β-catenin (residues 138-686)/biotinylated BCL9 26-mer; Ki derived from IC50; mean ± SD

Row | Compound | Ki [µM]
3 | O=C(NCCCC(=O)N1CCNCC1)c1ccc(-c2cc(C(=O)Nc3ccc(O[C@H]4CCNC4)c(-c4ccc(F)cc4)c3)ccc2O[C@H]2CCNC2)cc1 [Compound 29, 4-(4-(5′-((4′-fluoro-6-((S)-pyrrolidin-1-ium-3-yloxy)-[1,1′-biphenyl]-3-yl)carbamoyl)-2′-((S)-pyrrolidin-1-ium-3-yloxy)-[1,1′-biphenyl]-4-ylcarboxamido)butanoyl) piperazin-1-ium] | 2.1 ± 0.432
4 | O=C(Nc1ccc(O[C@H]2CCNC2)c(-c2ccc(F)cc2)c1)c1ccc(O[C@H]2CCNC2)c(-c2ccc(F)nc2)c1 [Compound 95, N-(4′-fluoro-6-((S)-pyrrolidin-3-yloxy)-[1,1′-biphenyl]-3-yl)-3-(6-fluoropyridin-3-yl)-4-((S)-pyrrolidin-3-yloxy)benzamide dihydrochloride] | 244 ± 13.3
5 | O=C(Nc1ccc(O[C@H]2CCNC2)c(-c2ccc(F)cc2)c1)c1ccc(O[C@H]2CCNC2)c(-c2ccc3cc(F)ccc3c2)c1 [Compound 96] | 7.17 ± 1.3
6 | O=C(Nc1ccc(O[C@H]2CCNC2)c(-c2ccc(F)cc2)c1)c1ccc(O[C@H]2CCNC2)c(-c2ccc3ccsc3c2)c1 [Compound 97] | 9.5 ± 1.12
7 | O=C(O)c1cccc(-c2cc(NC(=O)c3ccc(O[C@H]4CCNC4)c(-c4ccc(F)c(F)c4)c3)ccc2O[C@H]2CCNC2)c1 [Compound 98] | 180 ± 4.84
8 | O=C(O)c1ccc(-c2cc(NC(=O)c3ccc(O[C@H]4CCNC4)c(-c4ccc(F)c(F)c4)c3)ccc2O[C@H]2CCNC2)cc1 [Compound 99] | 156 ± 3.96
9 | CS(=O)(=O)Nc1cccc(C#Cc2cc(NC(=O)c3ccc(O[C@H]4CCNC4)c(-c4ccc(F)c(F)c4)c3)ccc2O[C@H]2CCNC2)c1 [Compound 101] | 56.2 ± 7.64
10 | CS(=O)(=O)Nc1cccc(-c2cc(NC(=O)c3ccc(O[C@H]4CCNC4)c(-c4ccc(F)c(F)c4)c3)ccc2O[C@H]2CCNC2)c1 [Compound 102] | 126 ± 10.3
11 | CC(=O)Nc1cccc(-c2cc(NC(=O)c3ccc(O[C@H]4CCNC4)c(-c4ccc(F)c(F)c4)c3)ccc2O[C@H]2CCNC2)c1 [Compound 103] | 96.4 ± 9.78

Results, then the compound that gave them:

Row | Ki [µM] | Compound
12 | 36 ± 7.21 | Cc1ccccc1-c1cc(NC(=O)c2ccc(O[C@H]3CCNC3)c(-c3ccc(F)c(F)c3)c2)ccc1O[C@H]1CCNC1 [Compound 91a, 3′,4′-Difluoro-N-(2′-methyl-6-((S)-pyrrolidin-3-yloxy)-[1,1′-biphenyl]-3-yl)-6-((S)-pyrrolidin-3-yloxy)-[1,1′-biphenyl]-3-carboxamide dihydrochloride]
13 | 40.8 ± 5.94 | Cc1cccc(-c2cc(NC(=O)c3ccc(O[C@H]4CCNC4)c(-c4ccc(F)c(F)c4)c3)ccc2O[C@H]2CCNC2)c1 [Compound 91b, 3′,4′-Difluoro-N-(3′-methyl-6-((S)-pyrrolidin-3-yloxy)-[1,1′-biphenyl]-3-yl)-6-((S)-pyrrolidin-3-yloxy)-[1,1′-biphenyl]-3-carboxamide dihydrochloride]
14 | 41.4 ± 9.16 | Cc1ccc(-c2cc(NC(=O)c3ccc(O[C@H]4CCNC4)c(-c4ccc(F)c(F)c4)c3)ccc2O[C@H]2CCNC2)cc1 [Compound 91c, 3′,4′-Difluoro-N-(4′-methyl-6-((S)-pyrrolidin-3-yloxy)-[1,1′-biphenyl]-3-yl)-6-((S)-pyrrolidin-3-yloxy)-[1,1′-biphenyl]-3-carboxamide dihydrochloride]
15 | 54.8 ± 6.24 | O=C(Nc1ccc(O[C@H]2CCNC2)c(-c2ccccc2C(F)(F)F)c1)c1ccc(O[C@H]2CCNC2)c(-c2ccc(F)c(F)c2)c1 [Compound 91d, 3′,4′-Difluoro-6-((S)-pyrrolidin-3-yloxy)-N-(6-((S)-pyrrolidin-3-yloxy)-2′-(trifluoromethyl)-[1,1′-biphenyl]-3-yl)-[1,1′-biphenyl]-3-carboxamide dihydrochloride]
16 | 25.9 ± 5.58 | N#Cc1cccc(-c2cc(NC(=O)c3ccc(O[C@H]4CCNC4)c(-c4ccc(F)c(F)c4)c3)ccc2O[C@H]2CCNC2)c1 [Compound 91e, N-(3′-cyano-6-((S)-pyrrolidin-3-yloxy)-[1,1′-biphenyl]-3-yl)-3′,4′-difluoro-6-((S)-pyrrolidin-3-yloxy)-[1,1′-biphenyl]-3-carboxamide dihydrochloride]
17 | 29.5 ± 5.77 | N#Cc1ccc(-c2cc(NC(=O)c3ccc(O[C@H]4CCNC4)c(-c4ccc(F)c(F)c4)c3)ccc2O[C@H]2CCNC2)cc1 [Compound 91f, N-(4′-cyano-6-((S)-pyrrolidin-3-yloxy)-[1,1′-biphenyl]-3-yl)-3′,4′-difluoro-6-((S)-pyrrolidin-3-yloxy)-[1,1′-biphenyl]-3-carboxamide dihydrochloride]
18 | 162 ± 8.69 | NC(=O)c1cccc(-c2cc(NC(=O)c3ccc(O[C@H]4CCNC4)c(-c4ccc(F)c(F)c4)c3)ccc2O[C@H]2CCNC2)c1 [Compound 91g, N-(3′-carbamoyl-6-((S)-pyrrolidin-3-yloxy)-[1,1′-biphenyl]-3-yl)-3′,4′-difluoro-6-((S)-pyrrolidin-3-yloxy)-[1,1′-biphenyl]-3-carboxamide dihydrochloride]
19 | 51.7 ± 6.15 | NC(=O)c1ccc(-c2cc(NC(=O)c3ccc(O[C@H]4CCNC4)c(-c4ccc(F)c(F)c4)c3)ccc2O[C@H]2CCNC2)cc1 [Compound 91h, N-(4′-carbamoyl-6-((S)-pyrrolidin-3-yloxy)-[1,1′-biphenyl]-3-yl)-3′,4′-difluoro-6-((S)-pyrrolidin-3-yloxy)-[1,1′-biphenyl]-3-carboxamide dihydrochloride]
20 | 11.1 ± 1.16 | NS(=O)(=O)c1ccc(-c2cc(NC(=O)c3ccc(O[C@H]4CCNC4)c(-c4ccc(F)c(F)c4)c3)ccc2O[C@H]2CCNC2)cc1 [Compound 91i, 3′,4′-Difluoro-6-((S)-pyrrolidin-3-yloxy)-N-(6-((S)-pyrrolidin-3-yloxy)-4′-sulfamoyl-[1,1′-biphenyl]-3-yl)-[1,1′-biphenyl]-3-carboxamide dihydrochloride]
21 | 27.3 ± 4.83 | Cc1cc(F)ccc1-c1cc(NC(=O)c2ccc(O[C@H]3CCNC3)c(-c3ccc(F)c(F)c3)c2)ccc1O[C@H]1CCNC1 [Compound 91j, 3′,4′-Difluoro-N-(4′-fluoro-2′-methyl-6-((S)-pyrrolidin-3-yloxy)-[1,1′-biphenyl]-3-yl)-6-((S)-pyrrolidin-3-yloxy)-[1,1′-biphenyl]-3-carboxamide dihydrochloride]
22 | 3.91 ± 0.734 | O=C(Nc1ccc(O[C@H]2CCNC2)c(-c2cccc(-c3nn[nH]n3)c2)c1)c1ccc(O[C@H]2CCNC2)c(-c2ccc(F)c(F)c2)c1 [Compound 91k, 3′,4′-Difluoro-6-((S)-pyrrolidin-3-yloxy)-N-(6-((S)-pyrrolidin-3-yloxy)-3′-(2h-tetrazol-5-yl)-[1,1′-biphenyl]-3-yl)-[1,1′-biphenyl]-3-carboxamide dihydrochloride]
23 | 19.9 ± 4.87 | O=C(Nc1ccc(O[C@H]2CCNC2)c(-c2ccc(-c3nn[nH]n3)cc2)c1)c1ccc(O[C@H]2CCNC2)c(-c2ccc(F)c(F)c2)c1 [Compound 91l, 3′,4′-Difluoro-6-((S)-pyrrolidin-3-yloxy)-N-(6-((S)-pyrrolidin-3-yloxy)-4′-(2h-tetrazol-5-yl)-[1,1′-biphenyl]-3-yl)-[1,1′-biphenyl]-3-carboxamide dihydrochloride]
24 | 124 ± 10.4 | O=C(Nc1ccc(O[C@H]2CCNC2)c(-c2ccc(F)nc2)c1)c1ccc(O[C@H]2CCNC2)c(-c2ccc(F)c(F)c2)c1 [Compound 91m, 3′,4′-Difluoro-N-(3-(6-fluoropyridin-3-yl)-4-((S)-pyrrolidin-3-yloxy)phenyl)-6-((S)-pyrrolidin-3-yloxy)-[1,1′-biphenyl]-3-carboxamide dihydrochloride]
